Experimental data as given in PubChem BioAssay AID330 (DTP/NCI, 2004).
“And” between values parts separate entries of the source, which are not always exact repeats. Equal values may be shown once. Toxic doses and inconclusive results are not listed. The calls were made as follows: active = survival T/C of 150% or more; inactive = T/C below 125% in these data.

Test system: P388 leukemia ip, CD2F1 mice, survival T/C
Test: NCI In Vivo Anticancer Drug Screen. Data for tumor model P388 Leukemia (intraperitoneal) in CD2F1 (CDF1) mice
Conditions: endpoint: median survival time, higher = longer survival
Method in brief: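 Mice carrying the transplanted tumor received test compound or vehicle. Survival was recorded in each group, and the value is the treated-group measurement divided by that of the vehicle-treated control group.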

[1] = dose: 100.0 mg/kg/injection, schedule: Q01DX001 (ip), vehicle: saline with Tween-80
[2] = dose: 200.0 mg/kg/injection, schedule: Q01DX001 (ip), vehicle: saline with Tween-80
[3] = dose: 400.0 mg/kg/injection, schedule: Q01DX001 (ip), vehicle: saline with Tween-80
[4] = dose: 50.0 mg/kg/injection, schedule: Q01DX005 (ip), vehicle: saline with Tween-80
[5] = dose: 100.0 mg/kg/injection, schedule: Q01DX005 (ip), vehicle: saline with Tween-80
[6] = dose: 200.0 mg/kg/injection, schedule: Q01DX005 (ip), vehicle: saline with Tween-80
[7] = dose: 25.0 mg/kg/injection, schedule: Q01DX009 (ip), vehicle: saline with Tween-80
[8] = dose: 50.0 mg/kg/injection, schedule: Q01DX009 (ip), vehicle: saline with Tween-80
[9] = dose: 100.0 mg/kg/injection, schedule: Q01DX009 (ip), vehicle: saline with Tween-80
[10] = dose: 200.0 mg/kg/injection, schedule: Q01DX009 (ip), vehicle: saline with Tween-80
[11] = dose: 50.0 mg/kg/injection, schedule: Q01DX005 (ip), vehicle: Klucel (hydroxypropylcellulose) (HPC)
[12] = dose: 100.0 mg/kg/injection, schedule: Q01DX005 (ip), vehicle: Klucel (hydroxypropylcellulose) (HPC)
[13] = dose: 200.0 mg/kg/injection, schedule: Q01DX005 (ip), vehicle: Klucel (hydroxypropylcellulose) (HPC)
[14] = dose: 60.0 mg/kg/injection, schedule: Q01DX005 (ip), vehicle: saline with Tween-80
[15] = dose: 120.0 mg/kg/injection, schedule: Q01DX005 (ip), vehicle: saline with Tween-80
[16] = dose: 240.0 mg/kg/injection, schedule: Q01DX005 (ip), vehicle: saline with Tween-80
[17] = dose: 6.25 mg/kg/injection, schedule: Q01DX009 (ip), vehicle: water
[18] = dose: 12.5 mg/kg/injection, schedule: Q01DX009 (ip), vehicle: water
[19] = dose: 25.0 mg/kg/injection, schedule: Q01DX009 (ip), vehicle: water
[20] = dose: 100.0 mg/kg/injection, schedule: Q01DX009 (ip), vehicle: water

Measured: T/C

O=C1CCCC(CCc2ccccc2)O1 (stereo not given)
inactive: [1] 100 % of control | [2] 101 % of control | [3] 100 % of control

CCOC(=O)C(Cc1ccc(O)cc1)NC(=O)C(CCCCN)N(C(=O)OCc1ccccc1)C(=O)OCc1ccccc1 (stereo not given)
inactive: [4] 96 % of control | [5] 94 % of control | [6] 92 % of control

NC(=S)C(Cl)(Cl)Cl
inactive: dose: 50.0 mg/kg/injection, schedule: Q01DX005 (ip), vehicle: saline + Tween-80 + alcohol 116 % of control | dose: 100.0 mg/kg/injection, schedule: Q01DX005 (ip), vehicle: saline + Tween-80 + alcohol 119 % of control | dose: 200.0 mg/kg/injection, schedule: Q01DX005 (ip), vehicle: saline + Tween-80 + alcohol 113 % of control

COc1ccc(/C(C#N)=C/c2ccccc2)cc1
inactive: dose: 6.25 mg/kg/injection, schedule: Q01DX009 (ip), vehicle: suspension in saline 99 % of control and 103 % of control and 107 % of control | dose: 12.5 mg/kg/injection, schedule: Q01DX009 (ip), vehicle: suspension in saline 100 % of control and 108 % of control and 114 % of control | [7] 86 % of control | dose: 25.0 mg/kg/injection, schedule: Q01DX009 (ip), vehicle: suspension in saline 100 % of control and 92 % of control and 98 % of control | [8] 91 % of control | dose: 50.0 mg/kg/injection, schedule: Q01DX009 (ip), vehicle: suspension in saline 107 % of control and 124 % of control | [9] 91 % of control | [10] 101 % of control

C/C(=C\C(=O)c1ccccc1)Nc1ccc(Cl)cc1
inactive: [7] 108 % of control | [8] 92 % of control | [9] 89 % of control | [10] 99 % of control

CCOP(=S)(N/N=C/c1ccc(C)s1)OCC
inactive: [11] 110 % of control | [12] 112 % of control | [13] 117 % of control

O=C(CC(c1ccccc1)c1ccccc1)c1ccccc1
inactive: [8] 86 % of control | [9] 90 % of control | [10] 88 % of control | dose: 400.0 mg/kg/injection, schedule: Q01DX009 (ip), vehicle: saline with Tween-80 89 % of control

Cc1ccc(-n2c(=O)c3[nH]c4ccccc4sc=3c2=O)cc1
inactive: [4] 102 % of control | [5] 95 % of control | [6] 91 % of control

CCCS(=O)[O-].CCCS(=O)[O-].[Zn+2]
inactive: dose: 0.05 mg/kg/injection, schedule: Q01DX009 (ip), vehicle: saline 103 % of control | dose: 0.1 mg/kg/injection, schedule: Q01DX009 (ip), vehicle: saline 107 % of control | dose: 0.2 mg/kg/injection, schedule: Q01DX009 (ip), vehicle: saline 108 % of control | dose: 0.4 mg/kg/injection, schedule: Q01DX009 (ip), vehicle: saline 99 % of control | dose: 0.8 mg/kg/injection, schedule: Q01DX009 (ip), vehicle: saline 107 % of control | dose: 1.6 mg/kg/injection, schedule: Q01DX009 (ip), vehicle: saline 108 % of control | dose: 3.2 mg/kg/injection, schedule: Q01DX009 (ip), vehicle: saline 101 % of control | dose: 6.4 mg/kg/injection, schedule: Q01DX009 (ip), vehicle: saline 100 % of control | dose: 12.8 mg/kg/injection, schedule: Q01DX009 (ip), vehicle: saline 100 % of control

C=CCN1c2c(nc(N)[nH]c2=O)NCC1CNc1ccc(C(=O)NC(CCC(=O)O)C(=O)O)cc1 (stereo not given)
inactive: dose: 50.0 mg/kg/injection, schedule: Q04DX003 (ip), vehicle: alkali diluted with saline 113 % of control | dose: 100.0 mg/kg/injection, schedule: Q04DX003 (ip), vehicle: alkali diluted with saline 95 % of control | dose: 200.0 mg/kg/injection, schedule: Q04DX003 (ip), vehicle: alkali diluted with saline 111 % of control

CCOC(=O)N1C=CC(C(=O)OC)=CC=C1C(=O)OC
inactive: [11] 98 % of control | [12] 95 % of control | [13] 94 % of control

CC(=O)N(C)OS(C)(=O)=O
inactive: dose: 50.0 mg/kg/injection, schedule: Q01DX001 (ip), vehicle: saline with Tween-80 108 % of control | [4] 101 % of control | [1] 100 % of control | [5] 103 % of control | [2] 104 % of control | [6] 106 % of control | [3] 104 % of control

CC1(C)NNC(=S)NN1
inactive: dose: 7.5 mg/kg/injection, schedule: Q01DX005 (ip), vehicle: saline with Tween-80 103 % of control | dose: 15.0 mg/kg/injection, schedule: Q01DX005 (ip), vehicle: saline with Tween-80 104 % of control

O=C(N=Nc1ccccc1)Nc1ccc(Cl)cc1
inactive: [4] 100 % of control | [5] 100 % of control | [6] 90 % of control

Cc1ccc(NC(=S)N/N=C\c2nc3ccccc3c3ccccc23)cc1
inactive: dose: 100.0 mg/kg/injection, schedule: Q04DX002 (ip), vehicle: Klucel (hydroxypropylcellulose) (HPC) 98 % of control | dose: 200.0 mg/kg/injection, schedule: Q04DX002 (ip), vehicle: Klucel (hydroxypropylcellulose) (HPC) 92 % of control | dose: 400.0 mg/kg/injection, schedule: Q04DX002 (ip), vehicle: Klucel (hydroxypropylcellulose) (HPC) 93 % of control

CC(C)CC(C(=O)O)N1C(=O)c2ccccc2C1=O (stereo not given)
inactive: [11] 98 % of control | [12] 100 % of control | [13] 95 % of control

O=C1CSC(c2ccc(O)cc2)N1c1nncs1 (stereo not given)
inactive: [14] 107 % of control | [15] 104 % of control | [16] 98 % of control

CS(=O)(=O)C(c1nc2n(c1O)C(=N)N=N2)c1nc2n(c1O)C(=N)N=N2 (stereo not given)
inactive: dose: 60.0 mg/kg/injection, schedule: Q01DX005 (ip), vehicle: saline 99 % of control | dose: 120.0 mg/kg/injection, schedule: Q01DX005 (ip), vehicle: saline 100 % of control | dose: 240.0 mg/kg/injection, schedule: Q01DX005 (ip), vehicle: saline 105 % of control

CCCCCCCCCCCCCCCC(=O)NC1CC(OC2CC(O)(C(C)=O)Cc3c(O)c4c(c(O)c32)C(=O)c2c(OC)cccc2C4=O)OC(C)C1O (stereo not given)
inactive: dose: 0.75 mg/kg/injection, schedule: Q01DX009 (ip), vehicle: other 111 % of control | dose: 1.5 mg/kg/injection, schedule: Q01DX009 (ip), vehicle: other 98 % of control | dose: 3.0 mg/kg/injection, schedule: Q01DX009 (ip), vehicle: other 113 % of control

COc1ccccc1NC(=O)Oc1ccc(C(C)(CCC(=O)O)c2ccc(OC(=O)Nc3ccccc3OC)cc2)cc1
inactive: dose: 25.0 mg/kg/injection, schedule: Q01DX005 (ip), vehicle: saline with Tween-80 103 % of control | [4] 101 % of control and 104 % of control and 97 % of control | [5] 102 % of control and 105 % of control and 94 % of control | [6] 90 % of control and 97 % of control | dose: 400.0 mg/kg/injection, schedule: Q01DX005 (ip), vehicle: saline with Tween-80 102 % of control

CCc1nc(N)nc(N)c1-c1ccc(Cl)c(NC(C)=O)c1
inactive: dose: 3.13 mg/kg/injection, schedule: Q01DX009 (ip), vehicle: distilled water + Tween-80 94 % of control | dose: 6.25 mg/kg/injection, schedule: Q01DX009 (ip), vehicle: distilled water + Tween-80 94 % of control | dose: 12.5 mg/kg/injection, schedule: Q01DX009 (ip), vehicle: distilled water + Tween-80 94 % of control | dose: 25.0 mg/kg/injection, schedule: Q01DX009 (ip), vehicle: distilled water + Tween-80 88 % of control | dose: 50.0 mg/kg/injection, schedule: Q01DX009 (ip), vehicle: distilled water + Tween-80 91 % of control

O=NNc1ncc(Sc2ccccc2)nc1Sc1ccccc1
inactive: [17] 103 % of control | [18] 113 % of control | [19] 122 % of control | [20] 106 % of control

CC1CC(=O)Nc2ncnc(N)c21 (stereo not given)
inactive: [14] 98 % of control | [15] 106 % of control | [16] 108 % of control

COc1ccc([N+]2=Cc3cc(OC)c(OC)cc3CC2)cc1OC
inactive: [17] 115 % of control | [18] 108 % of control | [19] 108 % of control | dose: 50.0 mg/kg/injection, schedule: Q01DX009 (ip), vehicle: water 103 % of control and 108 % of control | [20] 104 % of control and 88 % of control

O=c1n2ccccc2nc2nc3ccccc3n12
inactive: [14] 86 % of control | [15] 86 % of control

NNc1nncn2c1cc1ccccc12
inactive: dose: 6.25 mg/kg/injection, schedule: Q01DX009 (ip), vehicle: saline with Tween-80 98 % of control | dose: 12.5 mg/kg/injection, schedule: Q01DX009 (ip), vehicle: saline with Tween-80 95 % of control | [7] 92 % of control
